Source: PMC3433560 (Bioorganic & medicinal chemistry letters, 2012)

Biological target: KCNQ1 channels (Homo sapiens, UniProt P51787)
Assay: cell-based

Sequence of KCNQ1 channels (P51787 whole entry): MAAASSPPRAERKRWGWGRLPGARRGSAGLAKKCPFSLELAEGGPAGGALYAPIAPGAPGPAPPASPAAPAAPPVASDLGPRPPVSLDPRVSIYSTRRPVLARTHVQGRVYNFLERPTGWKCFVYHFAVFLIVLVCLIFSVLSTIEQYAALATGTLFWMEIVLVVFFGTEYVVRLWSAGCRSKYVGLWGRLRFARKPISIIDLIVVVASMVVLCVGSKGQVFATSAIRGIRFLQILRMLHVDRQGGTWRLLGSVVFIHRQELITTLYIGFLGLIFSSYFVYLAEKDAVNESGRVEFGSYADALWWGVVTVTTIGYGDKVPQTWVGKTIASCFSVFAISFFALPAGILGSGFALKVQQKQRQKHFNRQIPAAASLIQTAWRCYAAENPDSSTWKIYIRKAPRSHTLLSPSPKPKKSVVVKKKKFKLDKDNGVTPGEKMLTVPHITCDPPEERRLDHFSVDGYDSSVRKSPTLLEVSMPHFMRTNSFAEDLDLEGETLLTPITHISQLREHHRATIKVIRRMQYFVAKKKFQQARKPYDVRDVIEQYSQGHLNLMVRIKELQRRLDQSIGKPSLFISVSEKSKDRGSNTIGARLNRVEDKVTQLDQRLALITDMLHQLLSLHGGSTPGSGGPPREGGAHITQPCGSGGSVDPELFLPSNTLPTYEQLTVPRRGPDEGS

- EC50: 660 nM
Structure (SMILES): COc1ccc(-c2csc(NC(=O)C3CCCCN3S(=O)(=O)c3ccccc3)n2)cc1 (stereo not shown) [compound 5]
